# Results taken from publication PMC12211128, “Safety, tolerability, pharmacokinetic and pharmacodynamic effects of the muscarinic M1 positive allosteric modulator VU0467319 for Alzheimer’s disease: a single ascending-dose study in healthy participants” (Alzheimer's Research & Therapy, 2025).
# Marks after values point to notes of the source that are not given here.
# Tested on: healthy participants
# Test: Visual oddball ERP task
# Assay type: in vivo, human
# Settings: for Mean amplitude over the parietal cortex, Visual Oddball, Standard trials / Mean amplitude over the parietal cortex, Visual Oddball, Target trials: mean (SD)
# Protocol: Following the cognitive battery, an electrophysiology recording was set up. Visual and auditory ERPs were recorded using a 128-channel Geodesic sensor net (EGI, Inc., Eugene, OR; [37, 38]). The electrophysiological recording was sampled at 250 Hz with filters set at 0.1–100 Hz. During data collection, all electrodes were referenced to vertex (Cz). The recording session lasted approximately 30 min.
# Auditory and visual oddball tasks were performed to assess attention in auditory and visual modalities. In the auditory task, a pair of two pure tones (single formant) at 1000 and 1500 Hz were the stimuli. In the visual task, the stimuli were a pair of letters (X & O). The assignment of stimuli to standard and target conditions (70% & 30% of the trials respectively), was counterbalanced across participants. Each participant was asked to press a different button using their preferred hand upon presentation of the standard and the target stimulus. On average, auditory and visual tasks lasted 6–7 min each.
# ERP processing and Analysis: Single-trial ERPs were derived by extracting a 100-ms pre-stimulus baseline and a 900 ms post-stimulus interval. The trials were screened for ocular and motor artifacts using automated procedures with standard threshold settings (NetStation 4.4, EGI, Inc) and verified using manual review. Data for electrodes characterized by consistent artifacts were replaced using the spherical spline interpolation algorithm. If more than 15 electrodes within a trial were noisy, the entire trial was discarded. Remaining artifact-free trials were averaged separately for each condition (standard vs. oddball; novel vs. repeated images), re-referenced to an average reference, and baseline corrected. For individual participant’s data to be included in the analysis, each condition average had to have a minimum of 10 artifact-free trials.
# Statistical analysis focused on a priori selected electrode clusters corresponding to frontal, central, and parietal midline locations (Fz, Cz, Pz in 10–20 notation), confirmed using spatial principal components analysis. Mean amplitudes were calculated within 250–400 ms (frontal P3a), 300–500 ms (parietal P300), and 500–800 ms (parietal P600) temporal windows. These a-priori selected windows were confirmed using temporal principal components analysis.
# Analyses for the auditory and visual oddball ERPs focused on the parietal (P300) and frontal (P3a) responses to standard and target stimuli. Differences in the amplitude, latency, and scalp topography of the responses were examined. […] For the incidental memory paradigm, differences in the mean amplitude of the parietal P300/P600 responses to repeated vs. novel presentations. The amplitude of the parietal P300/P600 waveform measures stimulus recognition. A larger positive amplitude for repeated compared to novel images indicates spontaneous formation of a memory trace.
# Auditory and visual oddball tasks were performed to assess attention in auditory and visual modalities (Comerchero & Polich, 1999; Polich, 2007). In the auditory task, a pair of two pure tones (single formant) at 1000 and 1500 Hz were the stimuli. Tones were equated in duration (300 ms) and rise/decay times. Tones were presented at 75 dB SPL (measured at the ear) through a speaker positioned 1 meter in front of the participant. In the visual task, the stimuli were a pair of letters (X & O). All stimuli were presented in random order for 500 ms in the center of a computer monitor positioned 1 meter in front of the participant. For both auditory and visual tasks, 200 trials were presented with the inter-stimulus interval varying randomly between 1000-1300 ms to prevent habituation to stimulus onset. The assignment of stimuli to standard and target conditions (70% & 30% of the trials respectively), was counterbalanced across participants. […]
# [1] = SAD study, 120mg, Post-Drug, n = 5
# [2] = SAD study, 120mg, Pre-Drug, n = 5
# [3] = SAD study, 240mg, Post-Drug, n = 5
# [4] = VU319 120 mg, fasting, post-drug session, n = 9
# [5] = VU319 120 mg, fasting, pre-drug session, n = 9
# [6] = VU319 120 mg, fed, pre-drug session, n = 9
smiles,measurement,setting,value
Cn1cc2c(-c3cc(F)c(CN4Cc5ncccc5C4=O)c(F)c3)cccc2n1 [VU319],"Visual oddball P300 amplitude, targets vs standards","120 mg, fasted condition",no difference
same,"Visual oddball P300 amplitude, targets vs standards, effect size d","120 mg, fed, post-dose session, p = 0.061",0.73
same,"Visual oddball P300 amplitude, targets vs standards, effect size d","120 mg, fed, pre-dose session, p = 0.039",0.82
same,"Visual oddball parietal amplitude, target vs standard, post- vs pre-dose, effect size d","400 mg, p = 0.05",1.28
same,"Visual oddball parietal amplitude, target vs standard, post- vs pre-dose effect","600 mg, t < 1",not found
same,"Mean amplitude over the parietal cortex, Visual Oddball, Standard trials","SAD study, 60 mg, Post-Drug",-0.66 (1.57) µV
same,"Mean amplitude over the parietal cortex, Visual Oddball, Target trials","SAD study, 60 mg, Post-Drug",1.36 (0.91) µV
same,"Mean amplitude over the parietal cortex, Visual Oddball, Standard trials","SAD study, 60 mg, Pre-Drug",-0.13 (1.23) µV
same,"Mean amplitude over the parietal cortex, Visual Oddball, Target trials","SAD study, 60 mg, Pre-Drug",1.19 (1.9) µV
same,"Mean amplitude over the parietal cortex, Visual Oddball, Standard trials",[1],0.01 (1.05)^# µV
same,"Mean amplitude over the parietal cortex, Visual Oddball, Target trials",[1],1.5 (1.26)^# µV
same,"Mean amplitude over the parietal cortex, Visual Oddball, Standard trials",[2],0.99 (1.12)^# µV
same,"Mean amplitude over the parietal cortex, Visual Oddball, Target trials",[2],2.71 (1.58)^# µV
same,"Mean amplitude over the parietal cortex, Visual Oddball, Standard trials",[3],1.02 (1.44)^# µV
same,"Mean amplitude over the parietal cortex, Visual Oddball, Target trials",[3],2.2 (2.28)^# µV
same,"Mean amplitude over the parietal cortex, Visual Oddball, Standard trials","SAD study, 240 mg, Pre-Drug",0.32 (1.04) µV
same,"Mean amplitude over the parietal cortex, Visual Oddball, Target trials","SAD study, 240 mg, Pre-Drug",1.93 (1.88) µV
same,"Mean amplitude over the parietal cortex, Visual Oddball, Standard trials","SAD study, 400 mg, Post-Drug",1.48 (0.73) µV
same,"Mean amplitude over the parietal cortex, Visual Oddball, Target trials","SAD study, 400 mg, Post-Drug",2.7 (1.92) µV
same,"Mean amplitude over the parietal cortex, Visual Oddball, Standard trials","SAD study, 400 mg, Pre-Drug",1.04 (1.03) µV
same,"Mean amplitude over the parietal cortex, Visual Oddball, Target trials","SAD study, 400 mg, Pre-Drug",1.75 (1.5) µV
same,"Mean amplitude over the parietal cortex, Visual Oddball, Standard trials","SAD study, 600 mg, Post-Drug",1.47 (1.1) µV
same,"Mean amplitude over the parietal cortex, Visual Oddball, Target trials","SAD study, 600 mg, Post-Drug",3.1 (2.23) µV
same,"Mean amplitude over the parietal cortex, Visual Oddball, Standard trials","SAD study, 600 mg, Pre-Drug",1.46 (2.51) µV
same,"Mean amplitude over the parietal cortex, Visual Oddball, Target trials","SAD study, 600 mg, Pre-Drug",3.46 (2.31) µV
same,"Mean amplitude over the parietal cortex, Visual Oddball, Standard trials",[4],-0.16 (1.73) µV
same,"Mean amplitude over the parietal cortex, Visual Oddball, Target trials",[4],0.72 (3.1) µV
same,"Mean amplitude over the parietal cortex, Visual Oddball, Standard trials",[5],-0.16 (1.28) µV
same,"Mean amplitude over the parietal cortex, Visual Oddball, Target trials",[5],0.71 (1.6) µV
same,"Mean amplitude over the parietal cortex, Visual Oddball, Standard trials","VU319 120 mg, fed, post-drug session, n = 9",0.25 (0.62) µV
same,"Mean amplitude over the parietal cortex, Visual Oddball, Standard trials",[6],-0.29 (1.17) µV
same,"Mean amplitude over the parietal cortex, Visual Oddball, Target trials",[6],0.91 (1.49) µV
